{"source": "patent US11938121B2", "about": "“Treatment of infections and biofilm formation using a cellulose synthase inhibitor” (Purdue Research Foundation, priority 2020, dated 2024)", "target": "T1, GFP-CESA6c: GFP-tagged central cytosolic domain of AtCESA6 (cellulose synthase, CESA6) with a His-SUMO tag (Arabidopsis thaliana, UniProt Q94JQ6)", "T1 construct": "His-SUMO; made in house; host or cells: E. coli", "T1 sequence (Q94JQ6 322-868 limits assumed)": "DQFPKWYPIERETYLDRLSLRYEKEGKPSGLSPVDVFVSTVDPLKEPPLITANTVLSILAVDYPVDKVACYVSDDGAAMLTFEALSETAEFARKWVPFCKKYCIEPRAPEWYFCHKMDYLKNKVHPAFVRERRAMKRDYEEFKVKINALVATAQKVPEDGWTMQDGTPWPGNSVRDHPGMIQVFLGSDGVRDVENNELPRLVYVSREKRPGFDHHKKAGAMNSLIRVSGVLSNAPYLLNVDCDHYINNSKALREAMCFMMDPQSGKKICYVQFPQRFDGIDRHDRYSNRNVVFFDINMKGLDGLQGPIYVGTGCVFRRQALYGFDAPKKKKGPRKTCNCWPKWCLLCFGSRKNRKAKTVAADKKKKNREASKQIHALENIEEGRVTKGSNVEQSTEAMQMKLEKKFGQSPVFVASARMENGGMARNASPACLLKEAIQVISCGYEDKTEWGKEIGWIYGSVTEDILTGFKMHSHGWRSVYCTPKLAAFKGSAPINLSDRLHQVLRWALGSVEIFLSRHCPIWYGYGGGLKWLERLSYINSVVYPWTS", "experiment": "Microscale thermophoresis (MST) binding to purified GFP-tagged CESA6c (wild-type)", "settings": "FIGS. 3K-3M, 100 nM GFP-CESA6c purified from E. coli, pH 7.5, 10 mM MgCl2, 0.05% Tween 20, 5% DMSO, triplicate, read-out: Kd, thermophoresis binding curve, GFP-CESA6c", "text": "FIGS. 3A-3Q. […] FIG. 3A to FIG. 3G. […] FIG. 3A. Representative 5-day-old dark-grown Arabidopsis Col-0 seedlings grown on growth medium supplemented with different concentrations of ES20 or ES20-1. Scale bar: 1 cm. FIG. 3B. Quantification of hypocotyl length of 5-day-old dark-grown Arabidopsis Col-0 seedlings described in FIG. 3A. Data represent mean±SD (n=12 seedlings). FIG. 3C. Quantification of crystalline cellulose content in the hypocotyl cell walls of 7-day-old dark-grown Col-0 seedlings grown on growth medium supplemented with DMSO (0.1%), 1 μM ES20, or 1 μM ES20-1. Data represent mean±SD (n=3 biological replicates). FIG. 3D and FIG. 3E. […] FIG. 3D. Representative image of 6-day-old rice seedlings grown in sterile water supplemented with DMSO (0.1%), 20 μM ES20, or 20 μM ES20-1. Scale bar: 1 cm. FIG. 3E. Quantification of root length of rice seedlings as described in FIG. 3D. Data represent mean±SD (n=10 seedlings). FIG. 3F and FIG. 3G. […] FIG. 3F. Representative image of 6-day-old maize seedlings grown in sterile water supplemented with DMSO (0.1%), 20 μM ES20, or 20 μM ES20-1. Scale bar: 1 cm. FIG. 3G. Quantification of root length of maize seedlings as described in FIG. 3F. Data represent mean±SD (n=12 seedlings). […] FIG. 3H. Representative immunoblot from a DARTS assay of ES20-1 and YFP-AtCESA6. FIG. 3I. Quantitative analysis of the band intensity of YFP-AtCESA6 and SEC12 in ES20-1-treated samples divided by that of DMSO-treated samples in the DARTS assay described in FIG. 3H. Data represent mean±SD (n=6 biological replicates). FIGS. 3J-3N. […] FIG. 3J. Coomassie blue staining of purified GFP-tagged CESA6c with a His-SUMO tag (lane 2). FIGS. 3K, 3L, 3M, 3N. […] FIG. 3O. Coomassie blue staining of purified GFP-tagged CESA6c^P595S with a His-SUMO tag (lane 2). FIG. 3P and FIG. 3Q. […] Statistically significant differences in FIG. 3B were determined using one-way ANOVA followed by Tukey's multiple comparisons test. Lower-case letters represent ANOVA results for plants grown on medium with 0.1% DMSO, different concentrations of ES20 or ES20-1. […]"}
{"smiles": "Cc1ccccc1C(=O)NNC(=S)NC(=O)c1ccccc1", "note": "[ES20-1]", "values": [{"measurement": "Kd", "value": "4.4 ± 2.5", "unit": "µM"}]}
